From ChEMBL document CHEMBL5500334, “Scaffold hopping derived novel benzoxazepinone receptor-interacting protein kinase 1 (RIP1) inhibitors as anti-necroptosis agents: Anti-inflammatory effect in systemic inflammatory response syndrome (SIRS) and epilepsy” (Eur J Med Chem, 2024) come the findings set out here.

Series [1] relates to U-937. The experiment in a line: Anti-necroptosis activity against human U-937 cell assessed as inhibition of TSZ-induced necroptosis measured for 16 hrs by chemiluminescence assay. In kind it is functional, cell-based. Particulars: dose 0.391-50 µM.
The subject of series [2] is HT-29. The experiment in a line: Anti-necroptosis activity against human HT-29 cell assessed as inhibition of TSZ-induced necrosome formation at 10 nM measured for 6 hrs by Western blotting analysis. The format is functional, cell-based.
Series [3] can be described thus: Metabolic stability in rat liver microsome assessed as half life preincubated with compound for 60 mins followed by NADPH addition and measured after 60 mins by LC-MS/MS analysis. In kind it is ADME. The settings on record: liver microsomes, time 120 min.
A short description of series [4]: Metabolic stability in dog liver microsome assessed as half life preincubated with compound for 60 mins followed by NADPH addition and measured after 60 mins by LC-MS/MS analysis. The format is ADME, Canis lupus familiaris. The settings on record: liver microsomes, time 120 min.
For series [5], the system named is Mus musculus. Nature of the series: Protection against TNFalpha/Z-VAD-FMK-induced SIRS in po dosed C57BL/6J mouse model assessed as increase in survival rate preincubated with compound for 1 hr followed by mTNF-alpha and Z-VAD-FMK addition and measured after 6 hrs. In kind it is functional, organism-based. The settings on record: dose 0.625-2.5 mg/kg, time 7.0 hrs.

Series [6] relates to Mus musculus. Nature of the series: Protection against TNFalpha/Z-VAD-FMK-induced SIRS C57BL/6J mouse model assessed as survival rate at 2.5 mg/kg, po preincubated with compound for 1 hr followed by mTNF-alpha and Z-VAD-FMK addition and measured after 6 hrs. Particulars: 7 h.
For series [7], the system named is Mus musculus. The experiment in a line: Anti-inflammatory activity against male C57BL/6 epilepsy mouse model assessed as […] in brain at 2.5 to 5 mg/kg, po administered once daily of 1 week by ELISA analysis. Particulars: dose 2.5-5 mg/kg, time 1.0 weeks. The format is functional, organism-based.
The test system of series [8] is Mus musculus. The experiment in a line: Anti-inflammatory activity against male C57BL/6 epilepsy mouse model assessed as hyper-chromatism at 2.5 to 5 mg/kg, po administered once daily of 1 week by H and E staining based analysis. The format is functional, organism-based. The settings on record: dose 2.5-5 mg/kg, time 1.0 weeks.
Series [9] is described as follows: MRT (0 to infinity) in Sprague-Dawley rat at 25 mg/kg, IG measured at 5 to 2880 mins by LC-MS/MS analysis. In kind it is ADME, organism-based. The settings on record: in vivo, po, time 5-2880 min.
Series [10] can be described thus: Apparent oral clearance in Sprague-Dawley rat at 25 mg/kg, IG measured at 5 to 2880 mins by LC-MS/MS analysis. The format is ADME, organism-based. Particulars: in vivo, time 5-2880 min.
A short description of series [11]: Apparent volume of distribution during terminal phase in Sprague-Dawley rat at 25 mg/kg, IG measured at 5 to 2880 mins by LC-MS/MS analysis. The format is ADME, organism-based. Particulars: in vivo, po, time 5-2880 min, read-out: Vz/F.
Series [12] in a line: AUC (0 to infinity) in Sprague-Dawley rat at 5 mg/kg, iv measured at 5 to 2880 mins by LC-MS/MS analysis. The format is ADME, organism-based. Particulars: in vivo, time 5-2880 min.
For series [13], the target named is T1, Receptor-interacting serine/threonine-protein kinase 1 (Homo sapiens) (UniProt Q13546).
T1 sequence (whole entry): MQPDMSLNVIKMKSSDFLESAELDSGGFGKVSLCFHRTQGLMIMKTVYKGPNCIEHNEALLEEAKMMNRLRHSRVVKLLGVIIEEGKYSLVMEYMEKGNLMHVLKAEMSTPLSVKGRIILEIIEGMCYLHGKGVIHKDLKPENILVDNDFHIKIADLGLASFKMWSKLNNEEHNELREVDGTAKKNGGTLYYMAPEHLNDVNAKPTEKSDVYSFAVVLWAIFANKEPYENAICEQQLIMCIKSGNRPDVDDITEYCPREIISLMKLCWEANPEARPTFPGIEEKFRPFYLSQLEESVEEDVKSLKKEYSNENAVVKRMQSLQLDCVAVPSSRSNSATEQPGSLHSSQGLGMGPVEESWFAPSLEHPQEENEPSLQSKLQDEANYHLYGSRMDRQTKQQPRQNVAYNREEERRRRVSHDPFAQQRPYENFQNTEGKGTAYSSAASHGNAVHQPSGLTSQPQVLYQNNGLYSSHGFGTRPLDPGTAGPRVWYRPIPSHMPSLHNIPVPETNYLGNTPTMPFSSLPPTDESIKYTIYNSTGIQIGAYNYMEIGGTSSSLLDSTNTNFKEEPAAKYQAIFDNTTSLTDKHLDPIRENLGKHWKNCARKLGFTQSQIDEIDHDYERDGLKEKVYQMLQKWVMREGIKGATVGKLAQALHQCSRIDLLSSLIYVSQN
Particulars: HT-29, dose 10.0 nM, time 2-6 hrs, TDE = time-dependent effect.
Description: Inhibition of RIP1 phosphorylation in TSZ-induced human HT-29 cells at 10 nM by Western blot analysis

The species named for series [14] is Mus musculus. The experiment in a line: animal or person. Particulars: C57BL/6J, po, 7 h.

The source made the active and inactive calls. The calls are words filed in the database; no cut-off is given here.

For `CN1C(=O)[C@@H](NC(=O)c2ccc3[nH]cc(-c4ccccc4)c3c2)COc2ccccc21`, the Activity entry in series [1] and in [5] was “Dose-Dependent Effect” in each case. For the same molecule, the outcome in series [2], in series [7] and in series [8] was Active. Further, the half-life in [3] is 12.7 min; in [4], 42 min. The survival at 2.5 mg/kg in series [6] is 100%. In [9], this molecule returned an MRT inf of 1730 min. For the same molecule, in [10], the CL/F was found to be 14.9 mL/min/kg. For the same molecule, in [11], the Vd/F was found to be 31.2 L/kg. In series [12], this molecule registered an AUC(0-inf) of 10300 ng·h/mL. In addition, the inhibition entry in series [13] was “Tde”. This molecule registered a survival at 1.25 mg/kg in [14] of 90%.
